In patent publication US20150209327A1, “METHODS FOR THE TREATMENT OF OBESITY USING APREMILAST” (Celgene Corporation, priority 2014, published 2015):

Key:
[1] = Apremilast Data Pool: weight change; type: in vivo, human
Description: Similar results of weight loss were reported for the Apremilast Data Pool. A weight decrease was reported during the Placebo-controlled Period (24 weeks) in 3 (0.2%) subjects who received placebo and 26 (0.9%) subjects who received apremilast, including 8 (0.8%) subject in the APR 20 BID group, and 18 (1.1%) subjects in the APR 30 BID group.
The end-of-period value is the last postbaseline value (only through the Placebo-controlled Period for placebo-treated subjects) including data up to 28 days after the last dose of investigational product but excluding the observational follow-up visit.
The end-of-period value is the last postbaseline value (while subjects were receiving apremilast), including data up to 28 days after the last dose of apremilast but excluding the observational follow-up visit.

TNF-α production = test: Inhibition of TNF-α production in a mouse model; type: in vivo
Description: The test methods were as described in WO 03/080049; Muller et al., J. Med. Chem., 1996, 39:3238; and Muller et al., Bioorg. Med. Chem. Lett., 1999, 9:1625-30.

PDE1 = PDE1 enzyme assay; type: biochemical; conditions: at 10 μM
Procedure: (§1) PDE1, 2, 3 and 5 enzyme assays were prepared as described by Hidaka and Asano. Biochem. Biophys. Acta., 1976, 429:485; see also Nicholsen et al., Trends Pharmaco. Sci., 1991, 12:19. The PDE6 enzyme assay was prepared according to Baehr et al., J. Biol. Chem., 1979, 254:11669 and Gillespie et al., Mol. Pharm., 1989, 36: 773. The PDE7 enzyme assay was prepared according to Bloom and Beavo. Proc. Natl. Acad. Sci. USA, 1996, 93:14188-92.

PDE3 = PDE3 enzyme assay; type: biochemical; conditions: at 10 μM
Procedure: as §1

[2] = 20 mg BID, Placebo-controlled Period, Subjects as Initially Treated at Week 0, m = 900
[3] = 30 mg BID, Apremilast-exposure Period
[4] = 30 mg BID, Apremilast-exposure Period, Apremilast Subjects as Treated, m = 2268
[5] = 30 mg BID, Placebo-controlled Period
[6] = 30 mg BID, Placebo-controlled Period, Subjects as Initially Treated at Week 0, m = 1541
[7] = APR Total, Apremilast-exposure Period, Apremilast Subjects as Treated, m = 3606
[8] = APR Total, Placebo-controlled Period, Subjects as Initially Treated at Week 0, m = 2591

CCOc1cc([C@@H](CS(C)(=O)=O)N2C(=O)c3cccc(NC(C)=O)c3C2=O)ccc1OC [Apremilast, (+)-2-[1-(3-ethoxy-4-methoxyphenyl)-2-methylsulfonylethyl]-4-acetylaminoisoindoline-1,3-dione]
Weight % Change Category >5% to ≦10%, n (%) [1, 2]: 262 (2.9) n (%) | Weight % Change Category >10% to ≦20%, n (%) [1, 2]: 2 (0.2) n (%) | Weight % Change Category >20%, n (%) [1, 2]: 0 n (%) | Weight % Change Category ≧−5% to <0%, n (%) [1, 2]: 393 (43.7) n (%) | Weight % Change Category ≧−10% to <−5%, n (%) [1, 2]: 84 (9.3) n (%) | Weight % Change Category ≧−20% to <−10%, n (%) [1, 2]: 16 (1.8) n (%) | mean weight change from baseline ([1]; 20 mg BID, end of the Apremilast-exposure Period): -1.09 kg | mean weight change from baseline ([1]; 20 mg BID, end of the Placebo-controlled Period, Subjects as Initially Treated at Week 0): -1.01 kg | observed weight loss of greater than 10%, % subjects [1, 3]: 4.9% | weight decrease reported, subjects n (%) [1, 3]: 36 (1.5%) n (%) | Weight % Change Category 0%, n (%) [1, 4]: 162 (7.1) n (%) | Weight % Change Category <−20%, n (%) [1, 4]: 11 (0.5) n (%) | Weight % Change Category >0% to ≦5%, n (%) [1, 4]: 610 (26.9) n (%) | Weight % Change Category >5% to ≦10%, n (%) [1, 4]: 116 (5.1) n (%) | Weight % Change Category >10% to ≦20%, n (%) [1, 4]: 29 (1.3) n (%) | Weight % Change Category >20%, n (%) [1, 4]: 5 (0.2) n (%) | Weight % Change Category ≧−5% to <0%, n (%) [1, 4]: 923 (40.7) n (%) | Weight % Change Category ≧−10% to <−5%, n (%) [1, 4]: 311 (13.7) n (%) | Weight % Change Category ≧−20% to <−10%, n (%) [1, 4]: 101 (4.5) n (%) | observed weight loss of greater than 10%, subjects n (%) [1, 5]: 23 (1.5%) n (%) | percentage of subjects with weight change of >−10% to <−5% [1, 5]: 11.3% | weight decrease reported, subjects n (%) ([1]; 30 mg BID, Placebo-controlled Period (24 weeks)): 18 (1.1%) n (%) | Weight % Change Category 0%, n (%) [1, 6]: 159 (10.3) n (%) | Weight % Change Category <−20%, n (%) [1, 6]: 1 (0.1) n (%) | Weight % Change Category >0% to ≦5%, n (%) [1, 6]: 410 (26.6) n (%) | Weight % Change Category >5% to ≦10%, n (%) [1, 6]: 37 (2.4) n (%) | Weight % Change Category >10% to ≦20%, n (%) [1, 6]: 8 (0.5) n (%) | Weight % Change Category >20%, n (%) [1, 6]: 1 (0.1) n (%) | Weight % Change Category ≧−5% to <0%, n (%) [1, 6]: 729 (47.3) n (%) | Weight % Change Category ≧−10% to <−5%, n (%) [1, 6]: 174 (11.3) n (%) | Weight % Change Category ≧−20% to <−10%, n (%) [1, 6]: 22 (1.4) n (%) | mean weight change from baseline ([1]; 30 mg BID, end of the Apremilast-exposure Period): -1.41 kg | mean weight change from baseline ([1]; 30 mg BID, end of the Placebo-controlled Period, Subjects as Initially Treated at Week 0): -1.21 kg | Weight % Change Category 0%, n (%) [1, 7]: 325 (8.3) n (%) | Weight % Change Category <−20%, n (%) [1, 7]: 14 (0.4) n (%) | Weight % Change Category >0% to ≦5%, n (%) [1, 7]: 1109 (28.4) n (%) | Weight % Change Category >5% to ≦10%, n (%) [1, 7]: 179 (4.6) n (%) | Weight % Change Category >10% to ≦20%, n (%) [1, 7]: 48 (1.2) n (%) | Weight % Change Category >20%, n (%) [1, 7]: 6 (0.2) n (%) | Weight % Change Category ≧−5% to <0%, n (%) [1, 7]: 1602 (41.0) n (%) | Weight % Change Category ≧−10% to <−5%, n (%) [1, 7]: 466 (11.9) n (%) | Weight % Change Category ≧−20% to <−10%, n (%) [1, 7]: 157 (4.0) n (%) | Weight % Change Category 0%, n (%) [1, 8]: 280 (10.8) n (%) | Weight % Change Category <−20%, n (%) [1, 8]: 3 (0.1) n (%) | Weight % Change Category >0% to ≦5%, n (%) [1, 8]: 741 (28.6) n (%) | Weight % Change Category >5% to ≦10%, n (%) [1, 8]: 66 (2.5) n (%) | Weight % Change Category >10% to ≦20%, n (%) [1, 8]: 12 (0.5) n (%) | Weight % Change Category >20%, n (%) [1, 8]: 1 (<0.1) n (%) | Weight % Change Category ≧−5% to <0%, n (%) [1, 8]: 1187 (45.8) n (%) | Weight % Change Category ≧−10% to <−5%, n (%) [1, 8]: 263 (10.2) n (%) | Weight % Change Category ≧−20% to <−10%, n (%) [1, 8]: 38 (1.5) n (%) | body weight of the majority of subjects ([1]; Placebo-controlled Period and Apremilast-exposure Period): maintained their body weight within 0% and 5% of baseline | weight decrease reported, subjects n (%) ([1]; all subjects who received apremilast, Placebo-controlled Period (24 weeks)): 26 (0.9%) n (%) | EC50, inhibition of TNF-α production in a mouse model (TNF-α production): 0.05 mg/kg | % inhibition of PDE1 (PDE1): 23% | % inhibition of PDE3 (PDE3): 20%
